{"source": "patent US12662504B2", "about": "“High-solubility rebaudioside D complex” (SUNTORY HOLDINGS LIMITED, priority 2019, dated 2026)", "note": "Peptide text beside a SMILES is read from it."}
{"test_system": "not given", "test": "not given", "assay_type": "physicochemical", "details": "not given", "source_text": "In an embodiment of the present invention, the content of Reb. D in the complex is an amount equal to or less than the saturation solubility relative to the at least one compound selected from the carbohydrates and the water-soluble vitamins and the salts thereof. The saturation solubility means an amount (mg) with which Reb. D is no longer dissolved in a melt of 1 g of the at least one compound selected from the carbohydrates and the water-soluble vitamins and the salts thereof. The saturation solubility varies depending on the type of the compound and the temperature of the melt, but can be easily and accurately confirmed by actually forming a melt and dissolving Reb. D therein. For example, when forming a melt by using erythritol, 112 mg of Reb. D is dissolved in 1 g of erythritol at 190° C. (i.e., 112 mg/g).", "units": {"saturation solubility of Reb. D in erythritol melt": "mg/g"}}
{"molecule": "C=C1C[C@@]23CC[C@H]4[C@@](C)(CCC[C@@]4(C)C(=O)O[C@@H]4OC(CO)[C@@H](O)C(O)C4O[C@@H]4OC(CO)[C@@H](O)C(O)C4O)[C@@H]2CC[C@]1(O[C@@H]1OC(CO)[C@@H](O)C(O[C@@H]2OC(CO)[C@@H](O)C(O)C2O)C1O[C@@H]1OC(CO)[C@@H](O)C(O)C1O)C3", "note": "(some centres unmarked) [Reb. D, rebaudioside D]", "saturation solubility of Reb. D in erythritol melt": 112}
{"test_system": "panelists trained about sensory attributes of sweeteners", "test": "Evaluation of flavor by trained panelists (Example Q)", "assay_type": "in vivo", "details": "300 mg/L in terms of Reb. A or Reb. D; sucrose 9 SEV; 5 panelists; 0 to 6 points, sucrose control = 3", "method": "In order to confirm effects of the three-component complex of erythritol/Reb. D/fructose, evaluation of flavor was made. Reb. A and Reb. D were also used, and sucrose was used as a control. Each of a two-component complex and a three-component complex was prepared as a solid according to the method of the working example so that about 3.6% of Reb. D was contained. Each of the complexes or Reb. A was subjected to adjustment by adding water thereto in a manner such that the amount in terms of Reb. A or Reb. D became 300 mg/L. The concentration of the sucrose solution was adjusted to be 9 SEV (sucrose equivalent value). Evaluation of taste quality was made by panelists trained about sensory attributes of sweeteners (5 members). The respective items of evaluation of flavor (on-set speed, lingering sweet aftertaste, bitterness intensity, lingering bitter aftertaste and comprehensive evaluation) were scored in a range of 0 to 6 points. As a reference, sucrose alone was used as a control (3 points). 6 points means high on-set speed of sweetness, short lingering sweet aftertaste, low bitterness intensity, short lingering bitter aftertaste and satisfactory overall evaluation.", "units": {"Bitterness intensity": "points", "Comprehensive evaluation": "points", "Lingering bitter aftertaste": "points", "Lingering sweet aftertaste": "points", "On-set speed": "points"}}
{"molecule": "C=C1C[C@@]23CC[C@H]4[C@@](C)(CCC[C@@]4(C)C(=O)O[C@@H]4O[C@H](CO)[C@@H](O)[C@H](O)[C@H]4O)[C@@H]2CC[C@]1(O[C@@H]1O[C@H](CO)[C@@H](O)[C@H](O[C@@H]2O[C@H](CO)[C@@H](O)[C@H](O)[C@H]2O)[C@H]1O[C@@H]1O[C@H](CO)[C@@H](O)[C@H](O)[C@H]1O)C3", "note": "[Reb. A, rebaudioside A]", "Bitterness intensity": 2.10, "Comprehensive evaluation": 1.70, "Lingering bitter aftertaste": 1.70, "Lingering sweet aftertaste": 1.70, "On-set speed": 2.60}
{"molecule": "C=C1C[C@@]23CC[C@H]4[C@@](C)(CCC[C@@]4(C)C(=O)O[C@@H]4OC(CO)[C@@H](O)C(O)C4O[C@@H]4OC(CO)[C@@H](O)C(O)C4O)[C@@H]2CC[C@]1(O[C@@H]1OC(CO)[C@@H](O)C(O[C@@H]2OC(CO)[C@@H](O)C(O)C2O)C1O[C@@H]1OC(CO)[C@@H](O)C(O)C1O)C3", "note": "(some centres unmarked) [Reb. D, rebaudioside D]", "Bitterness intensity": 2.10, "Comprehensive evaluation": 2.20, "Lingering bitter aftertaste": 2.40, "Lingering sweet aftertaste": 2.50, "On-set speed": 2.40}
{"molecule": "OC[C@H]1O[C@@](CO)(O[C@H]2O[C@H](CO)[C@@H](O)[C@H](O)[C@H]2O)[C@@H](O)[C@@H]1O", "note": "[Sucrose]", "Bitterness intensity": 3.00, "Comprehensive evaluation": 3.00, "Lingering bitter aftertaste": 3.00, "Lingering sweet aftertaste": 3.00, "On-set speed": 3.00}
{"test_system": "not given", "test": "not given", "details": "times the sweetness of sugar / sucrose; cited from earlier work"}
{"molecule": "CC1=CC(=O)NS(=O)(=O)O1", "note": "[acesulfame potassium]", "sweetness relative to sugar (sucrose)": "about 200 times"}
{"molecule": "COC(=O)[C@H](Cc1ccccc1)NC(=O)[C@@H](N)CC(=O)O", "note": "[aspartame] (H-Asp-Phe-OMe)", "sweetness relative to sugar (sucrose)": "about 180 times"}
{"molecule": "OC[C@H]1O[C@H](O[C@]2(CCl)O[C@H](CCl)[C@@H](O)[C@@H]2O)[C@H](O)[C@@H](O)[C@H]1Cl", "note": "[sucralose]", "sweetness relative to sugar (sucrose)": "about 600 times"}
{"test_system": "not listed separately", "test": "Evaluation of melting/dissolution (Example A): melting of auxiliary raw material and dissolution of Reb. D in the melt", "details": "not given", "method": "(§1) The meltability of a raw material to be combined with Reb. D (hereinafter also referred to as “the auxiliary raw material”) and the solubility of Reb. D were evaluated, and the auxiliary raw material with which the complex of the present invention can be obtained was examined. As the auxiliary raw material, raw materials described in the table below were selected from food additives that can be added to beverages. The raw materials used for forming the complex are as follows: Reb. D formulation (purity: 95% (w/w), manufactured by Jining Renewal and Joint International); D-allulose (purity: 99%+), arabinose (purity: 98%+), fructose (purity: 99%+), glucose (purity: 99%+), maltose monohydrate (purity: 95%+), mannitol (purity: 99%+), mannose (purity: 98%+), rhamnose (purity: 98%+), ribose (purity: 98%+), sucrose (purity: 99%+), xylitol (purity: 98%+) and xylose (purity: 98%+), trehalose dihydrate (purity: 98%+), sodium pantothenate (purity: 98%+) (each manufactured by NACALAI TESQUE, INC.); and erythritol (purity: 98% (w/w), manufactured by Mitsubishi-Chemical Foods Corporation). Also in the subsequent working examples, the raw materials described above were used unless otherwise stated.\n(§2) The auxiliary raw material described in Table 1 was mixed with 100 mg of Reb. D formulation (purity: 95% (w/w)) in a heat-resistant vial, the temperature was elevated to the melting point of the auxiliary raw material or higher, and it was confirmed whether or not the auxiliary raw material was melted. After melting of the auxiliary raw material and dissolution of the Reb. D formulation were visually confirmed, the mixture was rapidly cooled in ice and stored at 10° C. The weight of the auxiliary raw material was adjusted based on the amount that enables dissolution of Reb. D. The weight of D-allulose (another name: D-psicose) was 2,000 mg, the weight of L-glutamine was 1,000 mg, the weight of vitamin D3 was 1,144 mg, and the weight of an auxiliary raw material other than those was 4,000 mg. The case where it was recognized that the auxiliary raw material was melted and that Reb. D was dissolved (including the case where dissolution was visually recognized more when compared to the point of adding (complete dissolution is not required)) was evaluated as “O”, and the case where it was not recognized that the auxiliary raw material was melted even at a temperature equal to or higher than the melting point of the auxiliary raw material, or the case where it was not recognized that Reb. D was dissolved though the auxiliary raw material was successfully melted (after the addition, change in outer appearance was not visually recognized) was evaluated as “X”."}
{"molecule": "OC[C@H]1O[C@H](O[C@H]2[C@H](O)[C@@H](O)C(O)O[C@@H]2CO)[C@H](O)[C@@H](O)[C@@H]1O", "note": "(mixture of isomers) [Maltose]", "Melting/dissolution": "◯"}
{"molecule": "O=C(O)CC(O)C(=O)O", "note": "(racemic) [DL-malic acid]", "Melting/dissolution": "◯"}
{"molecule": "O=C[C@@H](O)[C@H](O)[C@H](O)CO", "note": "[Arabinose]", "Melting/dissolution": "◯"}
{"molecule": "O=C(CO)[C@H](O)[C@H](O)[C@H](O)CO", "note": "[D-allulose]", "Melting/dissolution": "◯"}
{"molecule": "OC[C@@H](O)[C@@H](O)CO", "note": "[Erythritol]", "Melting/dissolution": "◯"}
{"molecule": "O=C(CO)[C@@H](O)[C@H](O)[C@H](O)CO", "note": "[Fructose]", "Melting/dissolution": "◯"}
{"molecule": "NC(=O)CC[C@H](N)C(=O)O", "note": "[L-glutamine]", "Melting/dissolution": "◯"}
{"molecule": "OC[C@@H](O)[C@@H](O[C@H]1O[C@H](CO)[C@@H](O)[C@H](O)[C@H]1O)[C@H](O)[C@@H](O)CO", "note": "[Maltitol]", "Melting/dissolution": "◯"}
{"molecule": "OC[C@@H](O)[C@@H](O)[C@H](O)[C@H](O)CO", "note": "[Mannitol]", "Melting/dissolution": "◯"}
{"molecule": "C[C@H](O)[C@H](O)[C@@H](O)[C@@H](O)C=O", "note": "[Rhamnose]", "Melting/dissolution": "◯"}
{"molecule": "O=C[C@H](O)[C@H](O)[C@H](O)CO", "note": "[Ribose]", "Melting/dissolution": "◯"}
{"molecule": "CC(C)(CO)[C@@H](O)C(=O)NCCC(=O)[O-].[Na+]", "note": "[Sodium pantothenate]", "Melting/dissolution": "◯"}
{"molecule": "OC[C@H]1O[C@@](CO)(O[C@H]2O[C@H](CO)[C@@H](O)[C@H](O)[C@H]2O)[C@@H](O)[C@@H]1O", "note": "[Sucrose]", "Melting/dissolution": "◯"}
{"molecule": "OC[C@@H](O)[C@H](O)[C@@H](O)CO", "note": "[Xylitol]", "Melting/dissolution": "◯"}
{"molecule": "O=C[C@H](O)[C@@H](O)[C@H](O)CO", "note": "[Xylose]", "Melting/dissolution": "◯"}
{"test_system": "not listed separately", "test": "Evaluation of melting/dissolution (Example A): melting of auxiliary raw material and dissolution of Reb. D in the melt", "details": "auxiliary raw material mixed with 100 mg of Reb. D formulation, heated to melting point or higher, visual", "method": "as §1, §2"}
{"molecule": "C=C1CC[C@H](O)C/C1=C/C=C1\\CCC[C@]2(C)[C@@H]([C@H](C)CCCC(C)C)CC[C@@H]12", "note": "[Vitamin D3]", "Melting/dissolution": "◯"}
